Test results reported in US20250098651A1, “A NON-HUMAN MAMMAL COMPRISING IN ITS GENOME AT LEAST TWO HUMAN LEUKOCYTE ANTIGEN (HLA) CLASS I ALLELES, METHODS OF MAKING SUCH MAMMAL AND USES THEREOF” (Max-Delbrueck-Centrum für Molekulare Medizin in der …, priority 2022, published 2025).

T1: TRRAP S722F peptide on HLA-A*02:01 (human)
T1 peptide: KLVFGSVFL

T2: TRRAP (wild-type S722) peptide on HLA-A*02:01 (human)
T2 peptide: KLVFGSVSL


Legend:
[1] = test system: CD8^+ T cells; test: Peptide immunization of ABabDII mice, CD8+ T cell IFN-γ response; assay type: in vivo, mouse
Protocol: (§1) A 200 μl injection suspension containing 100 μg of short peptides in PBS, 100 μl of incomplete Freund's adjuvant, and 50 μg CpG oligonucleotides were injected subcutaneously on both lateral sides of hind legs. 10- to 20-week-old young ABabDII or ABab.I mice (6-7 mice/group) were immunized with a 4-week interval between prime-boosts. Similar peptide mixtures were prepared and injected for further boosting regimens of all peptides. As standard controls, ABabDII^1 and ABab.I mice were immunized with 100 μg of MAGE-A1278 […] (SEQ ID NO: 26) peptide with a similar injection mixture. 7-10 days after every boost injection, peripheral blood cells from immunized mice were ACK-lysed and cultured with 1 μM respective specific or unspecific peptide in the presence of protein transport inhibitor for 5-6 hours. Post-cell fixation, cells were intracellularly stained for IFN-γ, surface stained for CD3, CD8 markers, and analyzed by flow cytometry.
For TCR candidate discovery, young ABabDII mice (n=7, 12-16 weeks) were immunized with mutant 9-mer peptides (FIG. 3B, […], SEQ ID NO: 30) at 4-week intervals. CD8^+ T cell responses were analyzed in blood one week after every boost using intracellular staining, followed by culturing the T cells and IFN-γ capture assay to sort for peptide-specific T cells (FIG. 4A). […]

[2] = test system: A375 cells; test: Endogenous processing assay, co-culture with A375 cells, IFN-γ; assay type: cell-based, Homo sapiens; details: concluded from TCR co-culture with TRRAP+ cell lines
From the text: FIGS. 4A-4F show the generation and characterization of TRRAP S722F TCRs in ABabDII mice. FIG. 4A depicts the TCR discovery pipeline with the immunization schedule as used in an illustrative example. […] Controls with wild-type S722 peptide or without (w/o) peptide. One representative flow cytometry plot out of three responder mice is given. […] IFN-γ levels measured after overnight co-culture of PBMCs (1×10^5) either with A375 cells (mutant-S722F^+, NY-ESO^+) or with SK-Mel-37 (wild-type-S722^+, NY-ESO^+). The TCR-ESO recognizes the NY-ESO157-165 epitope. Bar graph represents mean±SD (n=2). One representation out of three co-culture experiments is given.
Transduced T cells were co-cultured with peptide-titrated T2 (TAP^−/−) cells to ensure TCR interaction and its affinity to S722F. […] NY-ESO157-165, the HLA-A2 epitope is expressed on melanoma cells A375 and SK-Mel-37.

[3] = test system: CD8^+ T cells; test: Peptide immunization of ABab.I mice, intracellular IFN-γ staining of CD8+ T cells; assay type: in vivo, mouse; details: for CD8^+ T cells produced IFN-γ: ABab.I mice, peripheral blood restimulated in vitro seven days post-injection; for mice responded: out of 6-7 mice/antigen
Protocol: as §1, with “Similar peptide mixtures were prepared and injected for further boosting regimens of all peptides.” left out, “(SEQ ID NO: 26) peptide with a similar injection mixture.” left out
We analyzed ABab.I mice for antigen-specific CD8^+ T cell responses against described model antigens (FIG. 19A) using peptide immunization (FIG. 20). […] The MAGE-A1 epitope, […] The unspecific peptide used in in vitro restimulations was a NY-ESO epitope, […] (SEQ ID NO: 180).
Procedure: young mice were peptide-immunized (minimum twice) with intervals of at least 4-weeks between injections. Seven days post-booster injections, PBMCs from multi-HLA mice were stimulated in vitro with either the same peptides used for immunization (right), or unspecific peptides (left), or CD3/CD28 beads (middle, positive control). Intracellular flow cytometry staining measured the amount of IFN-γ cytokine released by the CD8^+ T cells after reacting to their respective epitopes. By flow cytometry, CD8^+ T cells were in vitro measured for CD3, CD8, and intracellularly IFN-γ expression. Dot plots in the figure depict CD8^+ IFN-γ^+ T cells (gated on CD3^+ lymphocytes). As an unspecific peptide, NY-ESO peptide ([…]) was used (as a negative control) only for in vitro stimulations.

[4] = biological target: T1, TRRAP S722F peptide on HLA-A*02:01; test: cytokine release
[5] = biological target: T2, TRRAP (wild-type S722) peptide on …; test: cytokine release

| Molecule | CD8^+ T cells produced IFN-γ [3] | mice responded [3] | other results |
| --- | --- | --- | --- |
| KLVFGSVEL [mutant epitope-S722F, TRRAP S722F mutant nonamer, HLA-A2-restricted] |  |  | T cells responding in the spleen after T cell culturing ([1]; 10^−9 M peptide and IL-2 (20 IU/ml) for 10 days): about 17%; T cells responded in blood ([1]; ABabDII mice, one-week post-4th injection (3rd boost)): about 0.8%; endogenous processing and presentation on HLA-A2 [2]: not endogenously processed and presented on HLA-A2 |
| APRGPHGGAASGL (NY- ESO peptide; NY- ESO epitope) [unspecific NY-ESO peptide used for in vitro restimulation] | No T cell responses were observed |  |  |
| TPRVTGGGAM | About 1.4% |  |  |
| VVGAVGVGK | About 6.9% | 6 |  |
| SAFRCFIVY | about 0.2% | 3 |  |
| QYDPVAALF | about 0.3% |  |  |
| KVLEYVIKV | ~1% | 3 |  |
| KMRMRRMRR | about 1.8% | 1 |  |
| VRIGHLYIL | about 0.23% | 1 |  |
| TRRAP S722F TCR, dominant TCR Valpha17-Vbeta27 pair (TCR) alpha TRAV17-1 TRAJ58 CDR3: CATDAEETSGSRLTF beta TRBV27-1 TRBJ2-1 CDR3: CASSLAGIYNEQFF |  |  | binding result [4]: recognises; binding result [5]: no recognition |
